The results in this text go back to patent publication US20240246935A1 (Plexium, Inc., priority 2021, published 2024).

Test [1] concerns the target human E3 ligase component cereblon (CRBN) (Homo sapiens (Human), UniProt Q96SW2). As to the kind of experiment: Cereblon (CRBN) target engagement, NanoBRET TE Intracellular E3 Ligase Assay in transfected HEK-293T cells. As to conditions: read-out: CRBN Binding EC50. Here is the method: HEK293T cells were harvested ca. 75% confluent with trypsin and plated (500,000 cells/well) in a 6-well tissue culture plate in 2 mL of Dulbecco's Modified Eagle Medium (DMEM)+10% Fetal Bovine Serum (FBS) and incubated overnight at 37° C.
The NanoLuc-CRBN fusion vector (Nluc-CRBN; Promega) contains the coding region of human E3 ligase component cereblon (CRBN) fused to the C-terminus of the NanoLuc luciferase coding region. A mixture of 10 ng Nluc-CRBN and 990 ng DDB1 Expression Vector (Promega) was added to 125 μL Opti-Minimum Essential Medium (Opti-MEM™; Thermo Fisher) along with 2 μL P3000 reagent (Thermo Fisher) in a 1.5 mL epppendorf tube. This solution was added to Lipofectamine 3000 transfection reagent (5 μL; Thermo Fisher) in Opti-MEM (125 μL), mixed well, and incubated for 15 minutes at room temperature. The transfection mixture was added dropwise to cells and incubated overnight at 37° ° C., 5% CO2. Following transfection, cells were washed once with PBS, and trypsin (250 μL) was added and incubated 30-45 sec to dislodge cells. Complete media (2 mL) was added to resuspend cells to form a single cell suspension. Cells were centrifuged at 320×g for 5 min at room temperature, the supernatant was removed, and the cell pellet resuspended in Opti-MEM (3 mL; wash step repeated×2). After final resuspension in 5 mL Opti-MEM, cells were counted and resuspended at 200,000 cells/mL in Opti-MEM.
Cereblon target engagement was monitored by Bioluminescence Resonance Energy Transfer (BRET) in transfected HEK-293T cells using the NanoBRET TE Intracellular E3 Ligase Assay (Promega). Briefly, 384-well plates (white opaque plates, Corning 3574, low binding surface) were seeded with transfected HEK-293T cells (38 μL/well). 2 μL of 10 μM CRBN tracer (diluted 1:5 in Tracer Dilution Buffer) was added to each well. Plates were centrifuged at 320×g for 1 min at room temperature. Test compounds were added in a 11-point dilution series (typically 10 μM to […]) using a TECAN D300e Digital Dispenser. Plates were shaken for 2 minutes on a microplate shaker to mix compounds. Plates were centrifuged at 320×g for 1 min at room temperature, and subsequently incubated for 2 hours at 37° C.
After incubation, plates were allowed to cool to room temperature for 15 minutes. 20 μL of 3× Complete NanoBRET™ Nano-Glo® Substrate plus Inhibitor Solution (Promega, 1:166 Substrate and 1:500 dilution of Extracellular NanoLuc® Inhibitor diluted in Opti-MEM) were added to each well. Plates were incubated with shaking at room temperature for 3 minutes covered with foil. Plates were read on a CLARIOstar microplate reader (BMG LabTech), measuring at 450 nm (donor emission) and 610 nm (acceptor emission). The IC50 values were determined by regression to best fit four-parameter logistic curves using GraphPad Prism.
For orientation: Bioluminescence resonance energy transfer reports proximity on the nanometre scale.

Another test concerns IKZF2 (Helios). Put plainly: IKZF2 reporter degradation assay (HEK 293T IKZF2-mNeonGreen reporter cell line). Conditions: 1 μM compound, 24 hour incubation, HEK 293T IKZF2-mNeonGreen reporter. It is filed as cell-based, human. An excerpt: Polycistronic plasmids were constructed for the mammalian expression of fluorescent reporter fusions of human transcription factors IKZF1 (Ikaros), IKZF2 (Helios), and IKZF3 (Aiolos). The respective protein sequences had their C-terminal end joined to a GGGGS linker repeated three times followed by mNeonGreen, P2A sequence, and mScarlet. The DNA sequences of the open reading frames are as follows:
IKZF1, IKZF2, and IKZF3 constructs were cloned into the UCOE Hygromycin expression vectors (Millipore Sigma). Reporter constructs were transfected using cationic lipid reagents into adherent HEK 293T cells and stable integrants were selected by treatment with 200 μg/mL hygromycin B. Clonal populations were obtained from the population of stable integrants either by limiting dilution or fluorescence activated cell sorting.
The clonal stable cell lines were maintained under constant 200 μg/mL hygromycin B selection while being passaged for use in the degradation assays. […] The fluorescence intensity of the IKZF1/2/3-mNeonGreen (FITC channel) and mScarlet (PE channel) reporters were routinely analyzed by flow cytometry to confirm consistent expression levels between experiments.
The IKZF1/IKZF2/IKZF3 degradation assays were carried out by harvesting the HEK 293T reporter cell lines and resuspending the cells in media formulated for reduced background fluorescence (FluoroBrite; Thermo Fisher). The respective cell lines were seeded at a density of 4000 cells/well into black-walled 384-well optical grade assay tissue culture plates. The cells were incubated overnight at 37° C. to allow for attachment to the assay plate. Dilutions of the compounds were prepared in DMSO from 10 mM compound stocks. The assay plates were treated with appropriate concentrations of the compounds by dispensing the DMSO dilutions in quadruplicate wells with an upper limit of 0.5% final DMSO.
After 24 hour incubation with the compounds, the assay plates were imaged on an ImageXpress Pico microscopy system (cells maintained at 37° C. during imaging) to obtain the fluorescent readouts. The assay plates were imaged in the FITC and Tetramethylrhodamine (TRITC) channels to obtain the mNeonGreen fluorescence intensity (reporter degradation data) and mScarlet fluorescence intensity (for cell segmentation). 293T-IKZF1 and 293T-IKZF3 reporter cell lines were imaged with exposures of 500 milliseconds (ms) for both FITC and TRITC channels, while the 293T-IKZF2 reporter cell line was imaged with exposures of 1000 ms for FITC and 1250 ms for TRITC. The resulting data was analyzed with Cell Reporter Xpress software using the 2-channel cell scoring analysis with a “percent positive” readout. The TRITC channel was selected for the “nuclei” segmentation with a threshold of 20 while the FITC channel was selected for the “Marker 1” segmentation and a threshold of 100 for the IKZF1 and IKZF3 reporter lines. […] The minimum segmentation width was set to 6 micrometers and the maximum segmentation width was set to 15 micrometers for all cell lines. The DCs calculations were determined by regression to best fit four-parameter logistic curves using GraphPad Prism.

Bounds are passed on as bounds.

human E3 ligase component cereblon (CRBN), sequence (Q96SW2 whole entry, the tested form may be a part): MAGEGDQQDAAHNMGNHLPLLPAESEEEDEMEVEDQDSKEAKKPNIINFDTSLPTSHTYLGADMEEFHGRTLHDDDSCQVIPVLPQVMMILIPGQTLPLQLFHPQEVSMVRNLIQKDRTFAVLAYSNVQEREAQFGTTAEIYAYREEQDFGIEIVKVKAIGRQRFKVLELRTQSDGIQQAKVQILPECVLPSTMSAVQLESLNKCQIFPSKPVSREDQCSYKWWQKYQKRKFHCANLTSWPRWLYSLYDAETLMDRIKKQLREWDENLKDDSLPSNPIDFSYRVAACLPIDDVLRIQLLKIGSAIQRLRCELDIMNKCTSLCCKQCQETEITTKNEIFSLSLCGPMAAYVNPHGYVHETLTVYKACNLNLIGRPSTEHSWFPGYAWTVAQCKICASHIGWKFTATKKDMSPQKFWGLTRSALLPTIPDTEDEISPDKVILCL
human E3 ligase component cereblon (CRBN), sequence (Q16531 whole entry partner, the tested form may be a part): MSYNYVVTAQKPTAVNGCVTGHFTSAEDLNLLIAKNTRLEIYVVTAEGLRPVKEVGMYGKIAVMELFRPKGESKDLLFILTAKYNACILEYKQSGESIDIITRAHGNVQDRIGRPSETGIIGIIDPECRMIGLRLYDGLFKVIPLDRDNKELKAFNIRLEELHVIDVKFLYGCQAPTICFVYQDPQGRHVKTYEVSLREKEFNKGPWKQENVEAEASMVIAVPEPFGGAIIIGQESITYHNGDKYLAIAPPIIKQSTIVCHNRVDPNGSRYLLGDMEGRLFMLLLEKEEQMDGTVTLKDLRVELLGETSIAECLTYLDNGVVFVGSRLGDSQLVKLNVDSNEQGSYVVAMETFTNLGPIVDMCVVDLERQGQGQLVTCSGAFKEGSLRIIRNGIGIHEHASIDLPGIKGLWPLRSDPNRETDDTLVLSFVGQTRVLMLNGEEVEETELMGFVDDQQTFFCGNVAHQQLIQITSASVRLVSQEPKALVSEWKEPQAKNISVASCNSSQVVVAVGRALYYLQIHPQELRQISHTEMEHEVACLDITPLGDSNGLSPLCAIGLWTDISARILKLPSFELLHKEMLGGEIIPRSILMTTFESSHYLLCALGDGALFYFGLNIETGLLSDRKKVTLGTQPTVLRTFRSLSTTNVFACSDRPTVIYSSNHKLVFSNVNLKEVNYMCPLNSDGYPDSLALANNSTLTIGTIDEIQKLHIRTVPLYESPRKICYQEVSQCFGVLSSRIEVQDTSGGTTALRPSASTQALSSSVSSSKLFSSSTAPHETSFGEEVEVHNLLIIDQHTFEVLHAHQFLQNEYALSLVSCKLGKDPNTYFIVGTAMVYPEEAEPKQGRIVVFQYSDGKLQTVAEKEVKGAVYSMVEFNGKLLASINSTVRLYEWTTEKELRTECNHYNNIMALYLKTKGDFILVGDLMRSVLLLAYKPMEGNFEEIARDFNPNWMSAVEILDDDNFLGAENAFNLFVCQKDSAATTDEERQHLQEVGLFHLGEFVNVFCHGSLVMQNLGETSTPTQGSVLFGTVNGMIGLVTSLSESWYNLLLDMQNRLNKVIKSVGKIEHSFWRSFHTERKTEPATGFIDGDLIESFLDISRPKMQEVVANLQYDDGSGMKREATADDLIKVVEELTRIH

`N#Cc1ccc(C2CN([C@H]3CCCC[C@@H]3Oc3ccc4c(c3)CN(C35CC(C3)C(=O)NC5=O)C4=O)C2)cc1` (racemic) [Compound 93, Rac-4-(1-((trans)-2-((2-(2,4-dioxo-3-azabicyclo[3.1.1]heptan-1-yl)-1-oxoisoindolin-5-yl)oxy)cyclohexyl)azetidin-3-yl)benzonitrile]: the EC50 (usually the concentration needed to bring the measured effect to its halfway point) in test [1] was more than 10 µM. In the case of `O=C1CCC(N2Cc3cc(O[C@H]4CCC[C@@H]4N4CC(c5cccc(F)c5)C4)ccc3C2=O)C(=O)N1` (stereo partly drawn) [Compound 88, 3-(5-(((1S,2S)-2-(3-(3-fluorophenyl)azetidin-1-yl)cyclopentyl)oxy)-1-oxoisoindolin-2-yl)piperidine-2,6-dione], the “IKZF2 % Degradation @ 1 μM” value with IKZF2 (Helios) is given as 71.4%. As to `N#Cc1cc(F)ccc1C1CN([C@@H]2CCC[C@@H]2Oc2ccc3c(c2)CN(C24CC(C2)C(=O)NC4=O)C3=O)C1` (racemic) [Compound 70, Rac-2-(1-((cis)-2-((2-(2,4-dioxo-3-azabicyclo[3.1.1]heptan-1-yl)-1-oxoisoindolin-5-yl)oxy)cyclopentyl)azetidin-3-yl)-5-fluorobenzonitrile], the EC50 in test [1] was more than 10 µM.

`N#Cc1ccccc1C1CN([C@H]2CCCC[C@@H]2Oc2ccc3c(c2)CN(C24CC(C2)C(=O)NC4=O)C3=O)C1` (racemic) [Compound 95, Rac-2-(1-((trans)-2-((2-(2,4-dioxo-3-azabicyclo[3.1.1]heptan-1-yl)-1-oxoisoindolin-5-yl)oxy)cyclohexyl)azetidin-3-yl)benzonitrile]: the half-maximal effective concentration (EC50) in test [1] is more than 10 µM.

In the case of `N#Cc1ccc(C2CN([C@H]3CCCC[C@@H]3Oc3ccc4c(c3)CN(C35CC(C3)C(=O)NC5=O)C4=O)C2)c(F)c1` (racemic) [Compound 91, Rac-4-(1-((trans)-2-((2-(2,4-dioxo-3-azabicyclo[3.1.1]heptan-1-yl)-1-oxoisoindolin-5-yl)oxy)cyclohexyl)azetidin-3-yl)-3-fluorobenzonitrile], in test [1], the EC50 was more than 10 µM. As for `O=C1CCC(N2Cc3cc(O[C@H]4CCC[C@@H]4N4CC(c5ccc(F)cc5Cl)C4)ccc3C2=O)C(=O)N1` (stereo partly drawn) [Compound 104, 3-(5-(((1S,2S)-2-(3-(2-chloro-4-fluorophenyl)azetidin-1-yl)cyclopentyl)oxy)-1-oxoisoindolin-2-yl)piperidine-2,6-dione], the “IKZF2 % Degradation @ 1 μM” value with IKZF2 (Helios) worked out at 71.2%.

In the case of `N#Cc1cc(F)ccc1C1CN([C@H]2CCCC[C@H]2Oc2ccc3c(c2)CN(C2CCC(=O)NC2=O)C3=O)C1` (mixture of isomers) [Compound 102, Rac-2-(1-((cis)-2-((2-(2,6-dioxopiperidin-3-yl)-1-oxoisoindolin-5-yl)oxy)cyclohexyl)azetidin-3-yl)-5-fluorobenzonitrile], the EC50 in test [1] was determined as 0.024 µM. Regarding `N#Cc1ccccc1C1CN([C@H]2CCCC[C@H]2Oc2ccc3c(c2)CN(C24CC(C2)C(=O)NC4=O)C3=O)C1` (racemic) [Compound 94, Rac-2-(1-((cis)-2-((2-(2,4-dioxo-3-azabicyclo[3.1.1]heptan-1-yl)-1-oxoisoindolin-5-yl)oxy)cyclohexyl)azetidin-3-yl)benzonitrile], the EC50 in test [1] is more than 10 µM. For the molecule `O=C1CCC(N2Cc3cc(O[C@H]4CCCC[C@@H]4N4CC(c5ccc(F)cc5Cl)C4)ccc3C2=O)C(=O)N1` (stereo partly drawn) [Compound 103, 3-(5-(((1S,2S)-2-(3-(2-chloro-4-fluorophenyl)azetidin-1-yl)cyclohexyl)oxy)-1-oxoisoindolin-2-yl)piperidine-2,6-dione], the “IKZF2 % Degradation @ 1 μM” value in the test with IKZF2 (Helios) worked out at 73.4%.

Consider `O=C1NC(=O)C2(N3Cc4cc(O[C@H]5CCC[C@@H]5N5CC(c6ccccc6)C5)ccc4C3=O)CC1C2` [Compound 105, 1-(1-oxo-5-(((1S,2S)-2-(3-phenylazetidin-1-yl)cyclopentyl)oxy)isoindolin-2-yl)-3-azabicyclo[3.1.1]heptane-2,4-dione], for which the EC50 in test [1] is more than 10 µM. Still for that read-out and setting: then `O=C1NC(=O)C2(N3Cc4cc(O[C@H]5CCCC[C@@H]5N5CCC(c6ccccc6)C5)ccc4C3=O)CC1C2` (stereo partly drawn) [Compound 106, 1-(1-oxo-5-(((1S,2S)-2-(3-phenylpyrrolidin-1-yl)cyclohexyl)oxy)isoindolin-2-yl)-3-azabicyclo[3.1.1]heptane-2,4-dione], with more than 10 µM; and `N#Cc1ccc(C2CN([C@H]3CCCC[C@H]3Oc3ccc4c(c3)CN(C35CC(C3)C(=O)NC5=O)C4=O)C2)cc1` (racemic) [Compound 92, Rac-4-(1-((cis)-2-((2-(2,4-dioxo-3-azabicyclo[3.1.1]heptan-1-yl)-1-oxoisoindolin-5-yl)oxy)cyclohexyl)azetidin-3-yl)benzonitrile], with more than 10 µM; and `O=C1NC(=O)C2(N3Cc4cc(O[C@H]5CCC[C@@H]5N5CC(c6ccccc6Cl)C5)ccc4C3=O)CC1C2` [Compound 82, 1-(5-(((1S,2S)-2-(3-(2-chlorophenyl)azetidin-1-yl)cyclopentyl)oxy)-1-oxoisoindolin-2-yl)-3-azabicyclo[3.1.1]heptane-2,4-dione], with 0.921 µM. Still for that read-out and setting: then `N#Cc1cccc(C2CN([C@H]3CCCC[C@H]3Oc3ccc4c(c3)CN(C35CC(C3)C(=O)NC5=O)C4=O)C2)c1` (racemic) [Compound 77, Rac-3-(1-((cis)-2-((2-(2,4-dioxo-3-azabicyclo[3.1.1]heptan-1-yl)-1-oxoisoindolin-5-yl)oxy)cyclohexyl)azetidin-3-yl)benzonitrile], with more than 10 µM. The same measure, in the same setting: then `N#Cc1ccc(C2CN([C@H]3CCCC[C@H]3Oc3ccc4c(c3)CN(C35CC(C3)C(=O)NC5=O)C4=O)C2)c(F)c1` (racemic) [Compound 90, Rac-4-(1-((cis)-2-((2-(2,4-dioxo-3-azabicyclo[3.1.1]heptan-1-yl)-1-oxoisoindolin-5-yl)oxy)cyclohexyl)azetidin-3-yl)-3-fluorobenzonitrile], with more than 10 µM. As to `N#Cc1cccc(C2CN([C@H]3CCCC[C@@H]3Oc3ccc4c(c3)CN(C35CC(C3)C(=O)NC5=O)C4=O)C2)c1` (racemic) [Compound 78, Rac-3-(1-((trans)-2-((2-(2,4-dioxo-3-azabicyclo[3.1.1]heptan-1-yl)-1-oxoisoindolin-5-yl)oxy)cyclohexyl)azetidin-3-yl)benzonitrile], the EC50 in test [1] was more than 10 µM.
